According to US20260207614A1, “IRAK4 DEGRADERS AND USES THEREOF” (Kymera Therapeutics, Inc., priority 2022, published 2026):

Assays:
[1] = test system: patients with hidradenitis suppurativa (HS); conditions: Phase 2 and 3, week 4; cited from earlier work
[2] = Diastereomer interconversion; format: physicochemical; conditions: in vitro and in vivo
Source text: (S,R,R)-Compound A and (R,R,R)-Compound A, which are designated as Compound B and Compound C, respectively. In some embodiments, Compound A is Compound B. In some embodiments, Compound A is Compound C. In some embodiments, Compound A is a mixture of Compound B and Compound C. […] In some embodiments, Compound A, Compound B, Compound C, or a pharmaceutically acceptable salt thereof, is amorphous. In some embodiments, Compound A, Compound B, Compound C, or a pharmaceutically acceptable salt thereof, is in crystal form.

[3] = test system: patients with atopic dermatitis (AD); conditions: Phase 3, week 4; cited from earlier work

Compound: Adalimumab
- Responders: AN Count 0/1/2 [1]: 28-47%^2, 3
- Responders: HiSCR50 [1]: 29-51%^3, 4
- Responders: HiSCR75 [1]: 20%^4
- Responders: Pain NRS30 [1]: 39-58%^2, 3, 5
- ΔAN Count [1]: −31%^1

Compound: Cn1c(=O)n([C@H]2CCC(=O)NC2=O)c2cccc(C#CCOC3CCN(C[C@H]4CC[C@H](n5cc(NC(=O)c6cnn7ccc(N8C[C@H]9C[C@@H]8CO9)nc67)c(C(F)F)n5)CC4)CC3)c21 [Compound B, 5-((1R,4R)-2-oxa-5-azabicyclo[2.2.1]heptan-5-yl)-N-(3-(difluoromethyl)-1-((1r,4R)-4-((4-((3-(1-((S)-2,6-dioxopiperidin-3-yl)-3-methyl-2-oxo-2,3-dihydro-1H-benzo[d]imidazol-4-yl)prop-2-yn-1-yl)oxy)piperidin-1-yl)methyl)cyclohexyl)-1H-pyrazol-4-yl)pyrazolo[1,5-a]pyrimidine-3-carboxamide]
- interconversion of diastereomers [2]: interconvert rapidly

Compound: Cn1c(=O)n([C@@H]2CCC(=O)NC2=O)c2cccc(C#CCOC3CCN(C[C@H]4CC[C@H](n5cc(NC(=O)c6cnn7ccc(N8C[C@H]9C[C@@H]8CO9)nc67)c(C(F)F)n5)CC4)CC3)c21 [Compound C, 5-((1R,4R)-2-oxa-5-azabicyclo[2.2.1]heptan-5-yl)-N-(3-(difluoromethyl)-1-((1r,4R)-4-((4-((3-(1-((R)-2,6-dioxopiperidin-3-yl)-3-methyl-2-oxo-2,3-dihydro-1H-benzo[d]imidazol-4-yl)prop-2-yn-1-yl)oxy)piperidin-1-yl)methyl)cyclohexyl)-1H-pyrazol-4-yl)pyrazolo[1,5-a]pyrimidine-3-carboxamide]
- interconversion of diastereomers [2]: interconvert rapidly

Compound: Dupilumab
- Responders: Peak Pruritis NRS, Past Week/Past 24 Hours, first value [3]: 23%
- Responders: Peak Pruritis NRS, Past Week/Past 24 Hours, second value [3]: 40%
- ΔEASI [3]: −52%^1
- ΔPeak Pruritis NRS: Past Week/Past 24 Hours [3]: −34%^1
